Series [1] relates to disorders of the cardiac rhythm provoked by aconitine. Description: animal or person. Conditions: for ED50: Rattus norvegicus, iv, read-out: ED50 (dose required to restore the rhythm in 50%), Wistar rats, i.v., aconitine-induced arrhythmia; for LD50/ED50 index: LD50 mice i.v. / ED50 rats i.v.; for index ratio (index of the test compound : index of Lidocaine): relative to Lidocaine = 1; for ED50 (dose required to restore the rhythm in 50%): i.v., aconitine-induced arrhythmia. As to the method: The anti-arrhytmic effect was tested in Wistar rats. The animals first received aconitine intravenously to provoke disorders of the cardiac rhythm [M. Fekete and J. Borsy: Med. Exp. Basel, 10, 93 (1964)] and then i.v. the test (or reference) compound. […] The dose required to restore the rhythm in 50% (ED50 mg/kg) was determined.

The next series in a line: in vivo. Conditions: mouse, iv, mice, i.v., read-out: LD50 (dose causing 50% mortality).
Series [2] deals with heart isolated from guinea pig. Description: electrophysiological parameters (conduction time, refractory period) of isolated heart. The following applies: relative to quinidine. From the text:
The new compounds have no beta-receptor blocking effect. In a local anaesthetic mechanism of effect the compounds of the formula (I) influence certain electrophysiological parameters of the heart. E.g. increase in conduction time and refractory period were observed on heart isolated from guinea pig.

Series [3] relates to ischiadic nerve isolated from frog. Description: local anaesthetic activity on isolated ischiadic nerve. Conditions: relative to Lidocaine.

Data on 31 compounds can be found in patent US4769373A, “Anti-arrhythmic azabicyclic compounds” (Richter Gedeon Vegyeszeti Gyar Rt., priority 1983, dated 1988).

Structures can show the parent of a compound that is named as a salt.

As to `CN1CC2CCC(N(C)C)C(C1)C2OC(=O)c1cccc(Cl)c1` (stereo not drawn) [compound 1645, 6α-dimethylamino-3-methyl-9α-(3'-chlorobenzoyloxy)-3-azabicyclo[3.3.1]nonane dihydrochloride monohydrate], the ED50 – broadly, the dose that gives a 50% effect, or the effect in half of the subjects – in series [1] is 1.2 mg/kg. For `CN1CC2CCC(N(C)C)C(C1)C2OC(=O)c1cccc(C(F)(F)F)c1` (stereo not drawn) [compound 1648, 6α-dimethylamino-3-methyl-9α-(3'-trifluoremethylbenzoyloxy)-3-azabicyclo[3.3.1]nonane dihydrochloride], the ED50 in series [1] turned out to be 1 mg/kg.

Regarding `CN1CC2CCC(N(C)C)C(C1)C2Oc1cccc(Cl)c1` (stereo not drawn) [compound 1535, 6α-dimethylamino-3-methyl-9α-(3'-chlorophenoxy)-3-azabicyclo[3.3.1]nonane monohydrochloride], in series [1], the 50% effective dose (ED50) came to 2.5 mg/kg. The same measure, in the same setting: the figure for `CN1CC2CCC(N(C)C)C(C1)C2OC(=O)c1ccc(F)cc1` (stereo not drawn) [compound 1641, 6α-dimethylamino-3-methyl-9α-(4'-fluorobenzoyloxy)-3-azabicyclo[3.3.1]nonane dihydrochloride monohydrate] is 0.55 mg/kg; for `CN1CC2CCC(N(C)C)C(C1)C2OC(=O)c1ccc(-c2ccccc2)cc1` (stereo not drawn) [compound 1530, 6α-dimethylamino-3-methyl-9α-(4'-phenylbenzoyloxy)-3-azabicyclo[3.3.1]nonane] it is 1.8 mg/kg. Turning to `Cc1ccc(OC2C3CCC(N(C)C)C2CN(C)C3)cc1` (stereo not drawn) [compound 1548, 6α-dimethylamino-3-methyl-9α-(4'-methylphenoxy)-3-azabicyclo[3.3.1]nonane fumarate], the ED50 in series [1] came to 2.5 mg/kg. Regarding `COc1cc(C(=O)OC2C3CCC(N(C)C)C2CN(C)C3)cc(OC)c1OC` (stereo not drawn) [compound 1529, 6α-dimethylamino-3-methyl-9α(3',4',5'-trimethoxybenzoyloxy)-3-azabicyclo[3.3.1]nonane], the LD50 (as a rule, the dose expected to kill half of the subjects tested) in the series “in vivo” stood at 35.2 mg/kg. In addition, in series [1], the LD50/ED50 index is recorded as 234.0, the ED50 amounted to 0.15 mg/kg and the “index ratio (index of the test compound : index of Lidocaine)” value (shortened to “index ratio”) was determined as 71.8. The “anti-arrhythmic effect, oral” value in series [1] (Wistar rats, 20 mg/kg dose p.o.) was “prolonged anti-arrhythmic effect”.

Regarding `CN1CC2CCC(N(C)C)C(C1)C2Oc1cccc(C(F)(F)F)c1` (stereo not drawn) [compound 1545, 6β-dimethylamino-3-methyl-9α-(3'-trifluoromethylphenoxy)-3-azabicyclo[3.3.1]nonane dihydrochloride], the “ED50 (dose required to restore the rhythm in 50%)” value in series [1] (Wistar rats, dihydrochloride) was 1.8 mg/kg. On to `CN1CC2CCC(N(C)C)C(C1)C2OC(=O)c1ccc(Cl)c(Cl)c1` (stereo not drawn) [compound 1643, 6α-dimethylamino-3-methyl-9α-(3',4'-dichlorobenzoyloxy)-3-azabicyclo[3.3.1]nonane dihydrochloride], for which, in series [1], the ED50 was found to be 1.2 mg/kg.

Consider `Cc1ccc(C(=O)OC2C3CCC(N(C)C)C2CN(C)C3)cc1` (stereo not drawn) [compound 1799, 6α-dimethylamino-3-methyl-9α-(4'-methylbenzoyloxy)-3-azabicyclo[3.3.1]nonane dihydrochloride], for which, in series [1], the median effective dose (ED50) was 1.1 mg/kg. Still for that read-out and setting: as for `CN1CC2CCC(N(C)C)C(C1)C2OC(=O)C1c2ccccc2Oc2ccccc21` (stereo not drawn) [compound 1531, 6α-dimethylamino-3-methyl-9α-(xanthen-9-carbonyloxy)-3-azabicyclo[3.3.1]nonane dihydrochloride], the figure is 1 mg/kg. With `CN1CC2CCC(N(C)C)C(C1)C2OC(=O)c1ccc2ccccc2c1` (stereo not drawn) [compound 1840, 6β-dimethylamino-3-methyl-9α-(2'naphthoyloxy)-3-azabicyclo[3.3.1]nonane dihydrochloride], in series [1] (Wistar rats, dihydrochloride), the “ED50 (dose required to restore the rhythm in 50%)” value is 0.95 mg/kg. Take `CN1CC2CCC(N(C)C)C(C1)C2OC(=O)c1ccc2ccccc2c1` (stereo not drawn) [compound 1801, 6α-dimethylamino-3-methyl-9α-(2'-naphthoyloxy)-3-azabicyclo[3.3.1]nonane]: the ED50 in series [1] is 0.7 mg/kg.

For `CN1CC2CCC(N(C)C)C(C1)C2OC(=O)c1ccccc1` (stereo not drawn) [compound 1542, 6β-dimethylamino-3-methyl-9α-benzoyloxy-3-azabicyclo[3.3.1]nonane], the median lethal dose (LD50) in “in vivo” came to 21.7 mg/kg. Besides, in series [1], the LD50/ED50 index was determined as 50.5 and the “index ratio” value came out at 15.5. For the same compound, the “ED50 (dose required to restore the rhythm in 50%)” value in series [1] (Wistar rats) amounted to 0.43 mg/kg. In addition, in series [2], the “activity on electrophysiological parameters compared with quinidine” value is on record as “about five times more active than the quinidine”. In series [3], the “local anaesthetic activity compared with Lidocaine” value is reported as “four times more favorable effective than Lidocaine”. For `CN1CC2CCC(N(C)C)C(C1)C2OC(=O)C1c2ccccc2Oc2ccccc21` (stereo not drawn) [compound 1543, 6β-dimethylamino-3-methyl-9α-(xanthen-9'-carbonyloxy)-3-azabicyclo[3.3.1]nonane], the “ED50 (dose required to restore the rhythm in 50%)” value in series [1] (Wistar rats) came out at 0.6 mg/kg. In the case of `CN1CC2CCC(N(C)C)C(C1)C2OC(=O)C1c2ccccc2Oc2ccccc21` (stereo not drawn) [compound 1547, 6α-dimethylamino-3-methyl-9β-(xanthen-9'-carbonyloxy)-3-azabicyclo[3.3.1]nonane], in “in vivo”, the LD50 is 36.3 mg/kg. In addition, in series [1], the LD50/ED50 index is on record as 51.1 and the “index ratio” value is reported as 15.7. Besides, the “ED50 (dose required to restore the rhythm in 50%)” value in series [1] (Wistar rats) came out at 0.71 mg/kg.

`CN1CC2CCC(N(C)C)C(C1)C2Oc1ccc(Cl)c(Cl)c1` (stereo not drawn) [compound 1537, 6α-dimethylamino-3-methyl-9α-(3',4'-dichlorophenoxy)-3-azabicyclo[3.3.1]noname fumarate]: the ED50 in series [1] was 4 mg/kg. As to `CN1CC2CCC(N(C)C)C(C1)C2OC(=O)c1ccccc1Cl` (stereo not drawn) [compound 1644, 6α-dimethylamino-3-methyl-9α-(2'-chlorobenzoyloxy)-3-azabicyclo[3.3.1]nonane dihydrochloride monohydrate], the ED50 in series [1] amounted to 1.4 mg/kg.

As to `CN1CC2CCC(N(C)C)C(C1)C2Oc1ccccc1` (stereo not drawn) [compound 1544, 6β-dimethylamino-3-methyl-9α-phenoxy-3-azabicyclo-[3.3.1]nonane], the “ED50 (dose required to restore the rhythm in 50%)” value in series [1] (Wistar rats) came to 1.4 mg/kg. Regarding `CN1CC2CCC(N(C)C)C(C1)C2OC(=O)c1cccc(F)c1` (stereo not drawn) [compound 1642, 6α-dimethylamino-3-methyl-9α-(3'-fluorobenzoyloxy)-3-azabicyclo[3.3.1]nonane dihydrochloride], the ED50 in series [1] amounted to 0.5 mg/kg. In the case of `CN1CC2CCC(N(C)C)C(C1)C2OC(=O)c1ccc(Cl)cc1` (stereo not drawn) [compound 1800, 6α-dimethylamino-3-methyl-9α-(4'-chlorobenzoyloxy)-3-azabicyclo[3.3.1]nonane dihydrochloride], the “ED50 (dose required to restore the rhythm in 50%)” value in series [1] (Wistar rats, dihydrochloride) was found to be 0.75 mg/kg. As for `CN1CC2CCC(N(C)C)C(C1)C2Oc1ccccc1Cl` (stereo not drawn) [compound 1536, 6α-dimethylamino-3-methyl-9α-(2'-chlorophenoxy)-3-azabicyclo[3.3.1]nonane dihydrochloride], in series [1], the ED50 is 1.8 mg/kg. As for `CN1CC2CCC(N(C)C)C(C1)C2Oc1ccc(Cl)cc1` (stereo not drawn) [compound 1534, 6α-dimethylamino-3-methyl-9α-(4'-chlorophenoxy)-3-azabicyclo[3.3.1]nonane fumarate], the ED50 in series [1] turned out to be 1.1 mg/kg.

`CN1CC2CCC(N(C)C)C(C1)C2Oc1ccccc1` (stereo not drawn) [compound 1533, 6α-dimethylamino-3-methyl-9α-phenoxy-3-azabicyclo[3.3.1]nonane]: the ED50 in series [1] is 1.4 mg/kg. On to `CCN(CC)CC(=O)Nc1c(C)cccc1C` [Lidocaine, reference compound], for which the median effective dose (ED50) in series [1] came to 7.7 mg/kg. Regarding `CN1CC2CCC(N(C)C)C(C1)C2Oc1cccc(C(F)(F)F)c1` (stereo not drawn) [compound 1539, 6α-dimethylamino-3-methyl-9α-(3'-trifluoromethylphenoxy)-3-azabicyclo[3.3.1]nonane fumarate], the LD50 in the series “in vivo” was determined as 64 mg/kg. In series [1], the LD50/ED50 index amounted to 256.0 and the “index ratio” value is recorded as 78.5. Moreover, the “ED50 (dose required to restore the rhythm in 50%)” value in series [1] (Wistar rats) is on record as 0.25 mg/kg. The “local anaesthetic activity compared with Lidocaine” value in series [3] was “as active as the Lidocaine”. For `CN1CC2CCC(N(C)C)C(C1)C2OC(=O)c1ccccc1` (stereo not drawn) [compound 1541, 6α-dimethylamino-3-methyl-9β-benzoyloxy-3-azabicyclo[3.3.1]nonane dihydrochloride], the “ED50 (dose required to restore the rhythm in 50%)” value in series [1] (Wistar rats, dihydrochloride) turned out to be 3.5 mg/kg. Turning to `CN1CC2CCC(N(C)C)C(C1)C2OC(c1ccccc1)c1ccccc1` (stereo not drawn) [compound 1540, 6α-dimethylamino-3-methyl-9α-benzhydryloxy-3-azabiocyclo[3.3.1]nonane], the ED50 in series [1] was 0.4 mg/kg. With `CN1CC2CCC(N(C)C)C(C1)C2OC(=O)c1ccccc1` (stereo not drawn) [compound 1528, 6α-dimethylamino-3-methyl-9α-benzoyloxy-3-azabicyclo[3.3.1]nonane dihydrochloride], the “ED50 (dose required to restore the rhythm in 50%)” value in series [1] (Wistar rats, dihydrochloride) is recorded as 0.68 mg/kg.

Consider `CN1CC2CCC(N(C)C)C(C1)C2OC(=O)c1ccc(Cl)cc1` (stereo not drawn) [compound 1658, 6β-dimethylamino-3-methyl-9α-(4'-chlorobenzoyloxy)-3-azabicyclo[3.3.1]nonane dihydrochloride], for which the “ED50 (dose required to restore the rhythm in 50%)” value in series [1] (Wistar rats, dihydrochloride) amounted to 2.3 mg/kg. For the compound `CN1CC2CCC(N(C)C)C(C1)C2OC(=O)c1cccs1` (stereo not drawn) [compound 1797, 6α-dimethylamino-3-methyl-9α-(2'-thenoyloxy)-3-azabicyclo[3.3.1]nonane], in series [1], the ED50 was 0.45 mg/kg.
